From patent publication US8518876B2, “Composition for long-acting peptide analogs” (Pharmaln Corporation, priority 2007, dated 2013) come the findings set out here.

The test system of series [1] is human umbilical chord artery endothelial cells (HUAEC). The series is described as follows: Ca-influx after vasopressin analog stimulation of HUAEC, samples pre-incubated in human serum. It is filed as cell-based. The arrangement: key to Activity of Various Vasopressin Analogs, 0 h / Activity of Various Vasopressin Analogs, 1 h / Activity of Various Vasopressin Analogs, 2 h / Activity of Various Vasopressin Analogs, 4 h: “−” for no detectable activity; “+” to “+++” for slight to high activity; “+” to “+++” for slight to high activity; “+” to “+++” for slight to high activity. An excerpt:
Ca-influx after vasopressin analog stimulation of human umbilical chord artery endothelial cells (HUAEC) was used to test the biological activity of the various vasopressin analogs. The material used were: 75 cm^2 tissue culture flasks, BD Bioscience, Bedford Mass. (catalogue number 137787) with 0.2 μm vented blue plug seal caps (catalogue number 353136); human umbilical artery endothelial cells (HUAEC), Lonza, Walkersville, Md. (catalogue number CC-2520); EGM-2 fully supplement medium, Lonza, Walkersville, Md. (catalogue number CC-3162); Fura-2 AM, Invitrogen/Molecular Probes, Carlsbad, Calif. (catalogue number F-1221) (Fura-2 AM is a high affinity, intracellular calcium indicator that is ratiometric and UV light-excitable; the acetoxymethyl (AM) ester form is useful for noninvasive intracellular loading as it is cell permeable. Once inside the cell the ester is clipped which renders the Fura-2 molecule cell impermeable and therefore trapped inside.); terlipressin derivatives custom made by Anaspec, San Jose Calif., according to inventors specifications; pooled human serum, Sigma, St. Louis, Mo. (catalogue number H4522); phosphate buffered saline (PBS), Fisher Scientific, Fair Lawn, N.J. (catalogue number BP399-500); trypsin-EDTA solution, 0.25%, Invitrogen/Gibco, Carlsbad, Calif. (catalogue number 25200-072); heat inactivated fetal bovine serum (FBS), Invitrogen/Gibco, Carlsbad, Calif. (catalogue number 10438-026); black polystyrene 96 well flat-bottom assay plates, Corning Inc., Corning, N.Y. (catalogue number 3916); Chameleon plate multilabel detection reader, Hidex, Turku, Finland, distributed by Bioscan, Washington, D.C.; dimethyl sulfoxide (DMSO), Fisher Scientific, Fair Lawn, N.J. (catalogue number D-136-1).
The methods used for tissue or cell culture are as follows: a vial of HUAEC (>0.5×10^6 cells) was thawed and seeded in two 75 cm^2 flasks with 15 ml EGM-2 medium each. Cells were grown over night and medium was changed. Media in the flasks were changed on a Monday, Wednesday, Friday schedule. Cells were split at approximately 80% confluency (using trypsin). Media were removed and the flasks were washed with 10 ml 1×PBS. The PBS was removed, 1.5 ml trypsin-EDTA solution was added and incubated for 5 min at 37° C. Three ml of FBS added and the cells were counted. The cells were centrifuged at 200×G for 5 min, resuspended in EGM-2 medium and distributed into new 75 cm2 flasks @ 3000-5000 cells per cm2.
To prepare for the Ca2+-influx assay, cells were distributed into one black 96 well plate @ 10^5 cells/well. Cells were allowed to adhere overnight and the medium was then removed. Fifty μg Fura-2 was dissolved in 50 μl DMSO and added to 10 ml PBS/2% FBS. The cells were stained with 20 μl of 5 μg/ml Fura-2 in PBS/2% FBS for 2 h, then 180 μl EGM-2 medium supplemented with CaCl2 and glucose was added (10 mM CaCl2 and 11.1 mM glucose final concentrations).
To prepare analogs for testing, 50 uM terlipressin (or derivative) stock solution in DMSO was prepared. […] (placed on ice after incubation).
To measure Ca-influx, Fura-2 fluorescence was measured for 4 repetitions per well at 340 nm ex/510 nm em and 420 nm ex/510 nm em (4 measurement before and 16 after injection of drug. At t=12 sec, 20 μl of terlipressin or derivative was injected as a 500 nM solution (or serum) for a final concentration of 50 nM per well. Fura-2 fluorescence was measured for […] per well at 340 nm ex/510 nm em and 420 nm ex/510 nm em (4 measurements before and 16 after injection of drug). The controls included injected human serum alone, and terlipressin or derivative dissolved in PBS as […]. All measurements were done in hexuplicate.
Data analysis was done using Graphpad Prism version 5.0 software (Graphpad software Inc, San Diego, Calif.). […]

A short description of series [2]: Solubility in water of the synthesized peptide. It is filed as physicochemical. The note with it: in words.

Entries after “also recorded” stand apart in the source; their conditions may differ. Where a SMILES comes first, the peptide text is derived from it. Bridges are numbered along the chain shown (N, C = ends). The star is where a group is joined. Lauroyl = CCCCCCCCCCCC(=O)*

Regarding `CCCCCCCCCCCC(=O)NCC(=O)NCC(=O)NCC(=O)N[C@H]1CSSC[C@@H](C(=O)N2CCC[C@H]2C(=O)N[C@@H](CCCCN)C(=O)NCC(N)=O)NC(=O)[C@H](CC(N)=O)NC(=O)[C@H](CCC(N)=O)NC(=O)[C@H](Cc2ccccc2)NC(=O)[C@H](Cc2ccc(O)cc2)NC1=O` [C12TerA, CH3(CH2)10CO-Gly-Gly-Gly-Cys-Tyr-Phe-Gln-Asn-Cys-Pro-Lys-Gly-NH2] (Lauroyl-GGGCYFQNCPKG-NH2; disulfide 4-9), the “Activity of Various Vasopressin Analogs, 0 h” value in series [1] (0 h pre-incubation in pooled human serum at 37° C. (serum present), Ca-influx in HUAEC, 50 nM per well) was “+++”. For the same compound, the “Activity of Various Vasopressin Analogs, 1 h” value in series [1] (1 h pre-incubation in pooled human serum at 37° C., Ca-influx in HUAEC, 50 nM per well) was “+++”. Moreover, the “Activity of Various Vasopressin Analogs, 2 h” value in series [1] (2 h pre-incubation in pooled human serum at 37° C., Ca-influx in HUAEC, 50 nM per well) was “+++”. For the same compound, the “Activity of Various Vasopressin Analogs, 4 h” value in series [1] (4 h pre-incubation in pooled human serum at 37° C., Ca-influx in HUAEC, 50 nM per well) is on record as “+++”. Moreover, in series [1] (FIG. 11, Fura-2 fluorescence, in words), the “calcium influx after 2-hour incubation in human serum” value is “able to induce calcium influx; also recorded: pronounced calcium influx”. For the same compound, the solubility in water result in series [2] is on record as “limited solubility in water”.
